Results as given in patent US20260184663A1, “INDENE COMPOUNDS, PHARMACEUTICAL COMPOSITIONS THEREOF, AND THEIR THERAPEUTIC APPLICATIONS” (NucMito Pharmaceuticals co. Ltd., priority 2022, published 2026).

What was measured:
Assay type in all cases: cell-based
[1] = tested on: A549 (lung adenocarcinoma); test: Antiproliferative activity (CCK-8 cell viability), A549; conditions: Homo sapiens, 72 h, read-out: Antiproliferative activity in cancerous cells, A549 (inhibition of cell growth); for inhibition at 3.3 µM: Compound concentration: 3.3 μM; for inhibition at 10 µM: Compound concentration: 10 μM; for inhibition at 30 µM: Compound concentration: 30 μM
Outline: (§1)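 Cells grown in DMEM (HepG2, SW480), MEM (HeLa) or F-12K (A549), each with 10% FBS, then exposed to compound at 3.3, 10 or 30 μM for 72 h at 37 °C. CCK-8 absorbance at 450 nm; viability expressed as percent of DMSO-treated cells, graded as growth inhibition bands.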

[2] = tested on: HeLa (cervical cancer); test: Antiproliferative activity (CCK-8 cell viability), HeLa; conditions: Homo sapiens, 72 h, read-out: Antiproliferative activity in cancerous cells, HELA (inhibition of cell growth); for inhibition at 3.3 µM: Compound concentration: 3.3 μM; for inhibition at 10 µM: Compound concentration: 10 μM; for inhibition at 30 µM: Compound concentration: 30 μM
Outline: as §1

[3] = tested on: MDA-MB-231 (breast cancer); test: Antiproliferative activity (CCK-8 cell viability), MDA-MB-231; conditions: Homo sapiens, 72 h, read-out: Antiproliferative activity in cancerous cells, MDA-MB-231 (inhibition of cell growth); for inhibition at 3.3 µM: Compound concentration: 3.3 μM; for inhibition at 10 µM: Compound concentration: 10 μM; for inhibition at 30 µM: Compound concentration: 30 μM
Outline: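 MDA-MB-231 breast cancer cells, grown in DMEM with 10% FBS, were plated in 96-well plates at 2,000-5,000 cells/well. Once attached, they were exposed to compound and incubated at 37° C. for 72 h. Viability was then measured with CCK-8 (10 μL per well, 4 h at 37° C.) by absorbance at 450 nm, relative to DMSO vehicle wells.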

[4] = tested on: SW480 (colon cancer); test: Antiproliferative activity (CCK-8 cell viability), SW480; conditions: Homo sapiens, 72 h, read-out: Antiproliferative activity in cancerous cells, SW480 (inhibition of cell growth); for inhibition at 3.3 µM: Compound concentration: 3.3 μM; for inhibition at 10 µM: Compound concentration: 10 μM; for inhibition at 30 µM: Compound concentration: 30 μM
Outline: as §1

[5] = tested on: B16F10 (malignant melanoma); test: Antiproliferative activity (CCK-8 cell viability), B16F10; conditions: Mus musculus, 72 h, read-out: Antiproliferative activity in cancerous cells, B16F10 (inhibition of cell growth); for inhibition at 3.3 µM: B16-F10, Compound concentration: 3.3 μM; for inhibition at 10 µM: B16-F10, Compound concentration: 10 μM; for inhibition at 30 µM: B16-F10, Compound concentration: 30 μM
Outline: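 B16F10 melanoma cells grown in DMEM with 10% FBS were plated in 96-well plates at 2,000-5,000 cells/well. After attachment they were exposed to compound in medium for 72 h at 37° C. CCK-8 solution (10 μL) was then added, and after 4 h at 37° C absorbance was read at 450 nm.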

[6] = tested on: alpha-smooth muscle actin (α-SMA); test: Inhibition of TGF-β induced expression of alpha-smooth muscle actin (α-SMA) in CFSC cells (western blot); conditions: compound at 10 μM, TGF-β (10 ng/mL), 24 hours, band intensity vs TGF-β only
Outline: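 Values are percent reduction of α-SMA band intensity relative to cells given TGF-β alone, quantified by Western blot densitometry with β-actin probed. Compound was applied at 10 μM alongside 10 ng/mL TGF-β to serum-free CFSC cultures for 24 h at 37 °C.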

[7] = tested on: HepG2 (liver cancer); test: Antiproliferative activity (CCK-8 cell viability), HepG2; conditions: Homo sapiens, 72 h, read-out: Antiproliferative activity in cancerous cells, HepG2 (inhibition of cell growth); for inhibition at 3.3 µM: Compound concentration: 3.3 μM; for inhibition at 10 µM: Compound concentration: 10 μM; for inhibition at 30 µM: Compound concentration: 30 μM
Outline: as §1

[8] = tested on: A431 (epidermoid carcinoma); test: Antiproliferative activity (CCK-8 cell viability), A431; conditions: Homo sapiens, 72 h, read-out: Antiproliferative activity in cancerous cells, A431 (inhibition of cell growth); for inhibition at 3.3 µM: A-431, Compound concentration: 3.3 μM; for inhibition at 10 µM: A-431, Compound concentration: 10 μM; for inhibition at 30 µM: A-431, Compound concentration: 30 μM
Outline: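 A431 epidermoid carcinoma cells grown in DMEM with 10% FBS were plated at 2,000-5,000 cells/well in 96-well plates. After attachment they were exposed to compound at 3.3 μM, 10 μM, or 30 μM for 72 h at 37° C. Viability was then assessed by CCK-8 against DMSO vehicle-treated wells.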

CCCC1=C(CC(=O)O)c2cc(F)ccc2/C1=C\c1cccc(COc2ccccc2)c1 [A7, (Z)-2-(5-Fluoro-1-(3-(phenoxymethyl)benzylidene)-2-propyl-1H-inden-3-yl)-acetic acid]
inhibition at 3.3 µM [1]: 30 to 50%
inhibition at 10 µM [1]: ≥ 50%
inhibition at 3.3 µM [2]: < 30%
inhibition at 10 µM [2]: ≥ 50%
inhibition at 3.3 µM [3]: ≥ 50%
inhibition at 10 µM [3]: ≥ 50%
inhibition at 3.3 µM [4]: < 30%
inhibition at 10 µM [4]: ≥ 50%
inhibition at 3.3 µM [5]: 30 to 50%
inhibition at 10 µM [5]: ≥ 50%
inhibition at 10 µM [6]: > 80%
inhibition at 3.3 µM [7]: ≥ 50%
inhibition at 10 µM [7]: < 30%
inhibition at 3.3 µM [8]: < 30%
inhibition at 10 µM [8]: ≥ 50%

CC1=C(CC(=O)O)c2c(F)cc(F)cc2/C1=C\c1ccc(C(C)C)cc1 [D8, (Z)-2-(4,6-Difluoro-1-(4-isopropylbenzylidene)-2-methyl-1H-inden-3-yl)acetic acid]
inhibition at 3.3 µM [1]: < 30%
inhibition at 10 µM [1]: 30 to 50%
inhibition at 30 µM [1]: ≥ 50%
inhibition at 3.3 µM [2]: ≥ 50%
inhibition at 10 µM [2]: ≥ 50%
inhibition at 30 µM [2]: ≥ 50%
inhibition at 3.3 µM [3]: 30 to 50%
inhibition at 10 µM [3]: ≥ 50%
inhibition at 30 µM [3]: ≥ 50%
inhibition at 3.3 µM [4]: < 30%
inhibition at 10 µM [4]: < 30%
inhibition at 30 µM [4]: ≥ 50%
inhibition at 3.3 µM [5]: < 30%
inhibition at 10 µM [5]: ≥ 50%
inhibition at 30 µM [5]: ≥ 50%
inhibition at 10 µM [6]: 50 to 80%
inhibition at 3.3 µM [7]: < 30%
inhibition at 10 µM [7]: < 30%
inhibition at 30 µM [7]: ≥ 50%
inhibition at 3.3 µM [8]: < 30%
inhibition at 10 µM [8]: < 30%
inhibition at 30 µM [8]: ≥ 50%

O=C(O)CC1=C(Cc2ccc(Oc3ccc(F)cc3)cc2)/C(=C/C2CC2)c2ccc(F)cc21 [A106, (Z)-2-(1-(Cyclopropylmethylene)-5-fluoro-2-(4-(4-fluorophenoxy)benzyl)-1H-inden-3-yl)acetic acid]
inhibition at 3.3 µM [1]: 30 to 50%
inhibition at 10 µM [1]: ≥ 50%
inhibition at 3.3 µM [2]: 30 to 50%
inhibition at 10 µM [2]: ≥ 50%
inhibition at 3.3 µM [3]: < 30%
inhibition at 10 µM [3]: ≥ 50%
inhibition at 3.3 µM [4]: < 30%
inhibition at 10 µM [4]: ≥ 50%
inhibition at 3.3 µM [5]: 30 to 50%
inhibition at 10 µM [5]: ≥ 50%
inhibition at 10 µM [6]: > 80%
inhibition at 3.3 µM [7]: < 30%
inhibition at 10 µM [7]: ≥ 50%
inhibition at 3.3 µM [8]: < 30%
inhibition at 10 µM [8]: ≥ 50%

CC1=C(CC(=O)O)c2ccc(F)c(F)c2/C1=C/c1ccc(Oc2ccc(F)cc2)cc1 [E3, (E)-2-(6,7-Difluoro-1-(4-(4-fluorophenoxy)benzylidene)-2-methyl-1H-inden-3-yl)acetic acid]
inhibition at 3.3 µM [1]: 30 to 50%
inhibition at 10 µM [1]: ≥ 50%
inhibition at 30 µM [1]: ≥ 50%
inhibition at 3.3 µM [2]: ≥ 50%
inhibition at 10 µM [2]: ≥ 50%
inhibition at 30 µM [2]: ≥ 50%
inhibition at 3.3 µM [3]: ≥ 50%
inhibition at 10 µM [3]: ≥ 50%
inhibition at 30 µM [3]: ≥ 50%
inhibition at 3.3 µM [4]: 30 to 50%
inhibition at 10 µM [4]: ≥ 50%
inhibition at 30 µM [4]: ≥ 50%
inhibition at 3.3 µM [5]: 30 to 50%
inhibition at 10 µM [5]: ≥ 50%
inhibition at 30 µM [5]: ≥ 50%
inhibition at 10 µM [6]: > 80%
inhibition at 3.3 µM [7]: ≥ 50%
inhibition at 10 µM [7]: ≥ 50%
inhibition at 30 µM [7]: ≥ 50%
inhibition at 3.3 µM [8]: ≥ 50%
inhibition at 10 µM [8]: ≥ 50%
inhibition at 30 µM [8]: ≥ 50%

CC1=C(CC(=O)O)c2cc(F)ccc2/C1=C/c1cccc(Oc2cccc(C(F)(F)F)c2)c1 [E16, (E)-2-(5-Fluoro-2-methyl-1-(3-(3-(trifluoromethyl)phenoxy)benzylidene)-1H-inden-3-yl)acetic acid]
inhibition at 3.3 µM [1]: 30 to 50%
inhibition at 10 µM [1]: 30 to 50%
inhibition at 30 µM [1]: ≥ 50%
inhibition at 3.3 µM [2]: ≥ 50%
inhibition at 10 µM [2]: ≥ 50%
inhibition at 30 µM [2]: ≥ 50%
inhibition at 3.3 µM [3]: 30 to 50%
inhibition at 10 µM [3]: 30 to 50%
inhibition at 30 µM [3]: ≥ 50%
inhibition at 3.3 µM [4]: < 30%
inhibition at 10 µM [4]: < 30%
inhibition at 30 µM [4]: ≥ 50%
inhibition at 3.3 µM [5]: < 30%
inhibition at 10 µM [5]: < 30%
inhibition at 30 µM [5]: ≥ 50%
inhibition at 10 µM [6]: > 80%
inhibition at 3.3 µM [7]: < 30%
inhibition at 10 µM [7]: 30 to 50%
inhibition at 30 µM [7]: ≥ 50%
inhibition at 3.3 µM [8]: < 30%
inhibition at 10 µM [8]: < 30%
inhibition at 30 µM [8]: ≥ 50%

O=C(O)CC1=C(Cc2ccc(Oc3ccc(F)cc3)cc2)/C(=C/c2cccc(COc3ccccc3)c2)c2ccc(F)cc21 [A101, (Z)-2-(5-Fluoro-2-(4-(4-fluorophenoxy)benzyl)-1-(3-(phenoxymethyl)-benzylidene)-1H-inden-3-yl)acetic acid]
inhibition at 3.3 µM [1]: ≥ 50%
inhibition at 10 µM [1]: ≥ 50%
inhibition at 3.3 µM [2]: ≥ 50%
inhibition at 10 µM [2]: ≥ 50%
inhibition at 3.3 µM [3]: ≥ 50%
inhibition at 10 µM [3]: ≥ 50%
inhibition at 3.3 µM [4]: ≥ 50%
inhibition at 10 µM [4]: ≥ 50%
inhibition at 3.3 µM [5]: ≥ 50%
inhibition at 10 µM [5]: ≥ 50%
inhibition at 10 µM [6]: > 80%
inhibition at 3.3 µM [7]: ≥ 50%
inhibition at 10 µM [7]: ≥ 50%
inhibition at 3.3 µM [8]: ≥ 50%
inhibition at 10 µM [8]: ≥ 50%

CC1=C(CC(=O)O)c2ccc(F)cc2/C1=C\c1cccc(Oc2ccccc2)c1 [C16, (Z)-2-(6-Fluoro-2-methyl-1-(3-phenoxybenzylidene)-1H-inden-3-yl)acetic acid]
inhibition at 3.3 µM [1]: < 30%
inhibition at 10 µM [1]: 30 to 50%
inhibition at 3.3 µM [2]: < 30%
inhibition at 10 µM [2]: < 30%
inhibition at 3.3 µM [3]: ≥ 50%
inhibition at 10 µM [3]: 30 to 50%
inhibition at 3.3 µM [4]: < 30%
inhibition at 10 µM [4]: < 30%
inhibition at 3.3 µM [5]: < 30%
inhibition at 10 µM [5]: ≥ 50%
inhibition at 10 µM [6]: > 80%
inhibition at 3.3 µM [7]: ≥ 50%
inhibition at 10 µM [7]: ≥ 50%
inhibition at 3.3 µM [8]: ≥ 50%
inhibition at 10 µM [8]: ≥ 50%
